This is an account of results in the OPERA property sets (Mansouri et al. 2018).

The structures appear in SMILES notation.

For orientation: melting point means the temperature of the solid-liquid transition. As a reminder, the boiling point is the temperature at which the vapour pressure of the liquid equals the pressure above it.

Settings in the first series: not given
In turn, `C[C@H]1C(=O)CC[C@@H]2[C@]1(C)CC[C@H]1[C@@]2(C)CC[C@@]2(C)[C@@H]3CC(C)(C)CC[C@]3(C)CC[C@]12C` had a melting point of 263 °C. Molecule `C=C(C)C=CC` registered a melting point of 75.5 °C.

Turning to `COCC(COC)OC`, the boiling point was determined as 148 °C. In turn, `COc1cccc(C(=O)NN)c1` displayed a melting point of 94 °C. For `C1=Cc2ccccc2CC1`, the boiling point is 206 °C and the melting point is -8 °C.

In turn, `CCCCc1nc(Cl)c(CO)n1Cc1ccc(-c2ccccc2-c2nnn[nH]2)cc1` came in with a melting point of 184 °C. Consider `CCCC=O`, for which the log10 Henry constant (atm·m³/mol) is -3.94, the log10 Koa stood at 3.39, the log10 vapour pressure (mmHg) was found to be 2.05 and the melting point was -99 °C. The ready biodegradability result was “readily biodegradable”. On to `OC[C@@H](O)[C@H]1O[C@@H]2O[C@H](C(Cl)(Cl)Cl)O[C@@H]2[C@H]1O`, for which the melting point was 183 °C. Turning to `CCOC(=O)C(C)[N+](=O)[O-]` (stereo not drawn), the boiling point stood at 190 °C. The molecule `Cc1ccc(-c2nc3ccc(C)cn3c2CC(=O)N(C)C)cc1` had a melting point of 196 °C.

`Cc1cccc[n+]1[O-]`: the melting point stood at 49 °C.

`C=C=O` showed a boiling point of -49.8 °C, a log10 vapour pressure (mmHg) of 4.02 and a melting point of -151 °C. Consider `C[C@]12CC[C@H](O)CC1=CC[C@@H]1[C@@H]2CC[C@]2(C)C(=O)CC[C@@H]12`, for which the melting point was 140 °C. Regarding `CC(C)(C)OOC(C)(C)CCC(C)(C)OOC(C)(C)C`, the melting point turned out to be 8 °C and the ready biodegradability result is given as “not readily biodegradable”. Turning to `COC1=C[C@@H](C)[C@@H]2C[C@H]3OC(=O)C[C@H]4C(C)=C(OC)C(=O)[C@H]([C@@]2(C)C1=O)[C@@]34C`, the melting point is 222 °C. On the same count and under the same terms, for `CCCNC(C)C(=O)Nc1ccccc1C` (stereo not drawn) the value was 37.5 °C. Take `CCCCCCCCCCCCC(=O)O`: the boiling point stood at 312 °C, the log10 vapour pressure (mmHg) was -4.9 and the melting point was determined as 44.5 °C.

`Cc1cccc(C(=O)N(NC(=O)c2ccccc2)C(C)(C)C)c1` gave a melting point of 211 °C. `CC1CCCCCC1` registered a boiling point of 134 °C. `CCOC(=O)C(O)(c1ccccc1)c1ccccc1`: the melting point was 34 °C.

With `CC(=O)Nc1ccc(O)cc1`, the melting point stood at 170 °C and the ready biodegradability result is “readily biodegradable”. On to `FC(F)(F)C(F)(F)C(F)(F)C(F)(F)I`, for which the boiling point stood at 67 °C and the melting point is -68 °C. The molecule `O=[N+]([O-])c1cc[n+]([O-])c2ccccc12` returned a melting point of 154 °C. Take `CCCCCCCCI`: the boiling point stood at 226 °C, the log10 vapour pressure (mmHg) was -0.602 and the melting point is -45.7 °C. Take `NC(=O)c1cnccn1`: the melting point came out at 192 °C. As to `O=C(O)Cc1cccc2ccccc12`, the log10 Koc (L/kg) turned out to be 2.2, the melting point is 135 °C and the ready biodegradability entry is listed as “not readily biodegradable”. `CCC(=O)O[C@H]1CC[C@H]2[C@@H]3CCC4=CC(=O)CC[C@]4(C)[C@H]3CC[C@]12C` registered a melting point of 120 °C. As for `COc1cc(C)ccc1O`, the boiling point was found to be 221 °C, the log10 Henry constant (atm·m³/mol) is -5.88 and the melting point came to 5.5 °C. In the case of `CCN(CC)CCN`, the boiling point was 144 °C. Turning to `CNS(=O)(=O)c1ccc(C)cc1`, the melting point amounted to 78.5 °C. With `COC(=O)CCl`, the boiling point was found to be 130 °C, the log10 vapour pressure (mmHg) is 0.882, the melting point is -32.1 °C and the ready biodegradability entry is on record as “readily biodegradable”. `C1CCC2CC2C1` (stereo not drawn) registered a boiling point of 116 °C and a log10 vapour pressure (mmHg) of 1.36. For the molecule `Oc1cc(O)cc(O)c1`, the melting point was determined as 218 °C and the ready biodegradability result is on record as “readily biodegradable”.

For `Cc1nnc(N)s1`, the melting point was 224 °C. Molecule `CCC(Br)=CBr` came in with a boiling point of 150 °C and a melting point of -49.5 °C. For `Cc1ccccc1CCO`, the boiling point was determined as 244 °C and the melting point amounted to 2 °C.

Consider `CC(C)=NNC(N)=S`, for which the ready biodegradability entry is “not readily biodegradable”. With `CN(C)Cc1ccccc1`, the boiling point turned out to be 181 °C and the ready biodegradability entry is given as “not readily biodegradable”. `CC(C)(N)C(=O)O` came in with a melting point of 335 °C. With `Fc1ccccc1F`, the boiling point was 94 °C, the log10 vapour pressure (mmHg) worked out at 1.73, the melting point was -34 °C and the ready biodegradability entry is “not readily biodegradable”. `CC(C)CCI` gave a boiling point of 147 °C. As for `CC1SC(C)SC(C)S1` (stereo not drawn), the boiling point amounted to 246 °C and the melting point turned out to be 101 °C. `COc1ccccc1Cl` showed a boiling point of 198 °C, a log10 vapour pressure (mmHg) of -0.623 and a melting point of -26.8 °C. `CC1CCCCC1C` (stereo not drawn) had a boiling point of 126 °C, a log10 biodegradation half-life (days) of 1.26 and a log10 vapour pressure (mmHg) of 1.2. For `CN(C)C(C)(C)CO`, the boiling point was 160 °C and the melting point was 19 °C. In turn, `CCCC#CCCCC` came in with a boiling point of 152 °C. `CCC(C)c1cc([N+](=O)[O-])cc([N+](=O)[O-])c1OC(=O)C=C(C)C` (stereo not drawn) showed a log10 vapour pressure (mmHg) of -6.5 and a melting point of 70 °C. Molecule `COc1ccc2c(OC)c3ccoc3nc2c1OC` showed a melting point of 177 °C.

`C=C(CC)CCC` returned a boiling point of 94 °C. Regarding `CCC(C)(C)CO`, the boiling point is 136 °C. As for `ClC=C(Cl)C(Cl)=CCl`, the boiling point was 188 °C and the melting point is -4 °C.

The molecule `c1cc[n+]2c(c1)-c1cccc[n+]1CC2` gave a log10 Koc (L/kg) of 2.7 and a log10 vapour pressure (mmHg) of -8. With `O=C=NS(=O)(=O)Cl`, the boiling point was 107 °C and the melting point is -44 °C.

For the molecule `O=[N+]([O-])c1ccc(CCl)cc1`, the melting point was 71 °C and the ready biodegradability result is on record as “not readily biodegradable”.

`CCCc1cccc(C)c1`: the boiling point was 182 °C, the log10 vapour pressure (mmHg) was 0.425 and the melting point is -82.5 °C. For `CC1(C)CCCC(=O)C1`, the boiling point worked out at 180 °C. Consider `CCCCC(CC)CCC(=O)CC(C)C` (stereo not drawn), for which the boiling point came out at 252 °C. `C[Si](Cl)(Cl)Cl`: the boiling point was 65.6 °C, the log10 vapour pressure (mmHg) is 2.22 and the melting point is -90 °C. On to `CCCCCCCC(=O)NN`, for which the melting point amounted to 88 °C.

Regarding `CCCCCC=CC(C)C`, the boiling point is 161 °C. Molecule `c1ccc(NNc2ccccc2)cc1` gave a boiling point of 309 °C, a log10 Koc (L/kg) of 2.98, a log10 vapour pressure (mmHg) of -3.36 and a melting point of 131 °C.

Turning to `c1ccc(N=Nc2ccc(Nc3ccccc3)cc2)cc1`, the melting point was determined as 90 °C. Regarding `COP(=O)(OC)OC`, the boiling point turned out to be 197 °C, the log10 Henry constant (atm·m³/mol) was -8.14, the log10 vapour pressure (mmHg) is -0.0706 and the melting point is -46 °C. The ready biodegradability result was “not readily biodegradable”. Consider `Cc1cc(C)c(C)c(O)c1`, for which the boiling point came to 230 °C, the log10 Koc (L/kg) amounted to 3.61, the log10 vapour pressure (mmHg) is -2.42 and the melting point is 93.5 °C. The molecule `O=C(OC(=O)C(F)(F)F)C(F)(F)F` registered a boiling point of 39.5 °C, a log10 vapour pressure (mmHg) of 1.61 and a melting point of -65 °C. Take `OCC(CO)(CCl)CCl`: the melting point was found to be 83 °C. The molecule `COc1ccc(C)c(N)c1` registered a boiling point of 253 °C and a melting point of 47 °C. For `C=C(NC(C)=O)C(=O)CCC(N)=O`, the melting point came out at 130 °C. Regarding `CCC1=CCCCC1`, the boiling point stood at 137 °C and the melting point is -110 °C. In turn, `CCCCCCCCCCCCCCBr` registered a boiling point of 307 °C, a log10 vapour pressure (mmHg) of -3.35 and a melting point of 5.6 °C.

Molecule `CCCCCCCCCCCCCCCCCCOS(=O)(=O)[O-].[Na+]` had a melting point of 212 °C.

Staying with this series, now noted: fish.
On to `CC(C)(C)OOC(C)(C)CCC(C)(C)OOC(C)(C)C`, for which the log10 BCF worked out at 3.48 and the log10 biotransformation half-life (days) is 0.77.

Regarding `O=C(O)Cc1cccc2ccccc12`, the log10 BCF worked out at 0.47. The same measure, in the same setting: next, `CN(C)Cc1ccccc1`: 1.15; `c1cc[n+]2c(c1)-c1cccc[n+]1CC2`: 0.76; `COP(=O)(OC)OC`: 0.15.

The molecule `Clc1cc(Cl)c(Oc2cc(Cl)c(Cl)cc2Cl)c(Cl)c1` yielded a log10 biotransformation half-life (days) of 2.01.
